The source made the active and inactive calls. How the calls were made is not given here.
Tested on: rodent lifetime carcinogenesis bioassay, tumor incidence TD50
Assay: chronic cancer bioassays in animals – CPDB, compiled studies (AID 1745844)

COc1cc(/C=C/C(=O)O[C@H]2CC[C@]34C[C@]35CC[C@]3(C)[C@@H]([C@H](C)CCC=C(C)C)CC[C@@]3(C)[C@@H]5CC[C@H]4C2(C)C)ccc1O
TD50 (mouse, strain B6C3F1, females, in feed, site: all sites, lesion: malignant lymphoma, dosed 78 weeks, study length 79 weeks): 5970 mg/kg/day (inactive) | carcinogen call (mouse, strain B6C3F1, females, in feed, site: liver, lesion: hepatocellular carcinoma, dosed 78 weeks, study length 79 weeks): negative (inactive) | carcinogen call (mouse, strain B6C3F1, females, in feed, site: liver, lesion: neoplastic nodule, dosed 78 weeks, study length 79 weeks): negative (inactive) | carcinogen call (mouse, strain B6C3F1, females, in feed, site: lung, lesion: alveolar/bronchiolar adenoma, dosed 78 weeks, study length 79 weeks): negative (inactive) | TD50 (mouse, strain B6C3F1, males, in feed, site: all sites, lesion: malignant lymphoma, dosed 78 weeks, study length 79 weeks): 15900 mg/kg/day (inactive) | carcinogen call (mouse, strain B6C3F1, males, in feed, site: liver, lesion: hepatocellular carcinoma, dosed 78 weeks, study length 79 weeks): negative (inactive) | carcinogen call (mouse, strain B6C3F1, males, in feed, site: liver, lesion: neoplastic nodule, dosed 78 weeks, study length 79 weeks): negative (inactive) | carcinogen call (mouse, strain B6C3F1, males, in feed, site: lung, lesion: alveolar/bronchiolar adenocarcinoma, dosed 78 weeks, study length 79 weeks): negative (inactive) | carcinogen call (mouse, strain B6C3F1, males, in feed, site: lung, lesion: alveolar/bronchiolar adenoma, dosed 78 weeks, study length 79 weeks): negative (inactive) | carcinogen call (rat, strain F344/DuCrj, females, in feed, site: liver, lesion: neoplastic nodule, dosed 104 weeks, study length 105 weeks): negative (inactive) | TD50 (rat, strain F344/DuCrj, males, in feed, site: liver, lesion: neoplastic nodule, dosed 104 weeks, study length 105 weeks): 68500 mg/kg/day (inactive)

CCN(CC)C(C)=O
TD50 (rat, strain Wistar, males, by gavage, site: any site (literature study), lesion: several types, types named in the paper, dosed 73 weeks, study length 73 weeks): 11.8 mg/kg/day | TD50 (rat, strain Wistar, males, by gavage, site: kidney, lesion: papillary transitional-cell carcinoma, dosed 73 weeks, study length 73 weeks): 8.85 mg/kg/day

C#CC(OC(N)=O)(c1ccccc1)c1ccc(Cl)cc1 (stereo unspecified)
TD50 (rat, strain Harlan, males, in feed, site: any site (literature study), lesion: several types, types named in the paper, dosed 72 weeks, study length 94 weeks): 3.88 mg/kg/day | TD50 (rat, strain Harlan, males, in feed, site: brain, lesion: several types, types named in the paper, dosed 72 weeks, study length 94 weeks): 462 mg/kg/day | TD50 (rat, strain Harlan, males, in feed, site: duodenum, lesion: adenocarcinoma, dosed 72 weeks, study length 94 weeks): 24.9 mg/kg/day | TD50 (rat, strain Harlan, males, in feed, site: jejunum, lesion: adenocarcinoma, dosed 72 weeks, study length 94 weeks): 8.78 mg/kg/day | TD50 (rat, strain Harlan, males, in feed, site: liver, lesion: several types, types named in the paper, dosed 72 weeks, study length 94 weeks): 58.5 mg/kg/day

COc1ccc(N)cc1N
TD50 (mouse, strain B6C3F1, females, in feed, site: all sites, lesion: lymphoma, dosed 78 weeks, study length 96 weeks): 262 mg/kg/day | TD50 (mouse, strain B6C3F1, females, in feed, site: any site (literature study), lesion: several types, types named in the paper, dosed 78 weeks, study length 96 weeks): 311 mg/kg/day | TD50 (mouse, strain B6C3F1, females, in feed, site: liver, lesion: hepatocellular adenoma + hepatocellular carcinoma + neoplastic nodule, dosed 78 weeks, study length 96 weeks): 7350 mg/kg/day | TD50 (mouse, strain B6C3F1, females, in feed, site: lung, lesion: alveolar/bronchiolar adenoma + alveolar/bronchiolar carcinoma, dosed 78 weeks, study length 96 weeks): 10900 mg/kg/day | TD50 (mouse, strain B6C3F1, females, in feed, site: thyroid gland, lesion: follicular-cell adenoma + follicular-cell carcinoma, dosed 78 weeks, study length 96 weeks): 1060 mg/kg/day | TD50 (mouse, strain B6C3F1, females, in feed, site: thyroid gland, lesion: follicular-cell adenoma, dosed 78 weeks, study length 96 weeks): 1450 mg/kg/day | TD50 (mouse, strain B6C3F1, males, in feed, site: any site (literature study), lesion: several types, types named in the paper, dosed 78 weeks, study length 96 weeks): 354 mg/kg/day | TD50 (mouse, strain B6C3F1, males, in feed, site: liver, lesion: hepatocellular adenoma + hepatocellular carcinoma + neoplastic nodule, dosed 78 weeks, study length 96 weeks): 926 mg/kg/day | TD50 (mouse, strain B6C3F1, males, in feed, site: lung, lesion: alveolar/bronchiolar adenoma + alveolar/bronchiolar carcinoma, dosed 78 weeks, study length 96 weeks): 2560 mg/kg/day | TD50 (mouse, strain B6C3F1, males, in feed, site: thyroid gland, lesion: follicular-cell adenoma, dosed 78 weeks, study length 96 weeks): 791 mg/kg/day | TD50 (rat, strain Fischer 344, females, in feed, site: Zymbal's gland, lesion: sebaceous adenocarcinoma, dosed 78 weeks, study length 107 weeks): 665 mg/kg/day | TD50 (rat, strain Fischer 344, females, in feed, site: any site (literature study), lesion: several types, types named in the paper, dosed 78 weeks, study length 107 weeks): 181 mg/kg/day | TD50 (rat, strain Fischer 344, females, in feed, site: any site (literature study), lesion: several types, types named in the paper, dosed 83 weeks, study length 86 weeks): 67.3 mg/kg/day | TD50 (rat, strain Fischer 344, females, in feed, site: clitoral gland + uterus, endometrium, lesion: carcinoma, NOS + adenocarcinoma, NOS + papillary carcinoma, dosed 78 weeks, study length 107 weeks): 408 mg/kg/day | TD50 (rat, strain Fischer 344, females, in feed, site: clitoral gland, lesion: adenoma, NOS + carcinoma, NOS + cystadenoma, NOS + squamous-cell carcinoma + squamous-cell papilloma, dosed 78 weeks, study length 107 weeks): 416 mg/kg/day | TD50 (rat, strain Fischer 344, females, in feed, site: clitoral gland, lesion: several types, types named in the paper, dosed 83 weeks, study length 86 weeks): 113 mg/kg/day | TD50 (rat, strain Fischer 344, females, in feed, site: clitoral gland, lesion: squamous-cell carcinoma, sebaceous, dosed 83 weeks, study length 86 weeks): 162 mg/kg/day | TD50 (rat, strain Fischer 344, females, in feed, site: liver, lesion: hepatocellular adenoma + hepatocellular carcinoma + neoplastic nodule, dosed 78 weeks, study length 107 weeks): 14500 mg/kg/day | TD50 (rat, strain Fischer 344, females, in feed, site: mammary gland, lesion: several types, types named in the paper, dosed 83 weeks, study length 86 weeks): 1290 mg/kg/day | TD50 (rat, strain Fischer 344, females, in feed, site: thyroid gland + Zymbal's gland, lesion: adenocarcinoma, NOS + follicular-cell carcinoma + papillary cystadenocarcinoma, NOS + sebaceous adenocarcinoma, dosed 78 weeks, study length 107 weeks): 301 mg/kg/day | TD50 (rat, strain Fischer 344, females, in feed, site: thyroid gland, lesion: adenocarcinoma, NOS + follicular-cell carcinoma + papillary cystadenocarcinoma, NOS, dosed 78 weeks, study length 107 weeks): 425 mg/kg/day | TD50 (rat, strain Fischer 344, females, in feed, site: thyroid gland, lesion: follicular-cell adenoma, dosed 83 weeks, study length 86 weeks): 296 mg/kg/day | TD50 (rat, strain Fischer 344, females, in feed, site: thyroid gland, lesion: several types, types named in the paper, dosed 83 weeks, study length 86 weeks): 162 mg/kg/day | TD50 (rat, strain Fischer 344, males, in feed, site: any site (literature study), lesion: several types, types named in the paper, dosed 78 weeks, study length 107 weeks): 135 mg/kg/day | TD50 (rat, strain Fischer 344, males, in feed, site: ear canal + ear + Zymbal's gland, lesion: sebaceous adenocarcinoma + squamous-cell carcinoma, dosed 78 weeks, study length 107 weeks): 709 mg/kg/day | TD50 (rat, strain Fischer 344, males, in feed, site: ear canal + ear + preputial gland + skin + thyroid gland + Zymbal's gland, lesion: sebaceous adenocarcinoma + squamous-cell carcinoma + adenoma, NOS + carcinoma, NOS + cystadenoma, NOS + papillary adenoma + basal-ce, dosed 78 weeks, study length 107 weeks): 72.6 mg/kg/day | TD50 (rat, strain Fischer 344, males, in feed, site: liver, lesion: hepatocellular adenoma + hepatocellular carcinoma + neoplastic nodule, dosed 78 weeks, study length 107 weeks): 1610 mg/kg/day | TD50 (rat, strain Fischer 344, males, in feed, site: preputial gland, lesion: adenoma, NOS + carcinoma, NOS + cystadenoma, NOS + papillary adenoma, dosed 78 weeks, study length 107 weeks): 351 mg/kg/day | TD50 (rat, strain Fischer 344, males, in feed, site: preputial gland, lesion: adenoma, NOS + cystadenoma, NOS + papillary adenoma, dosed 78 weeks, study length 107 weeks): 530 mg/kg/day | TD50 (rat, strain Fischer 344, males, in feed, site: skin, lesion: basal-cell carcinoma + sebaceous adenocarcinoma + squamous-cell carcinoma, dosed 78 weeks, study length 107 weeks): 358 mg/kg/day | TD50 (rat, strain Fischer 344, males, in feed, site: thyroid gland, lesion: adenocarcinoma, NOS + follicular-cell carcinoma + papillary adenocarcinoma + papillary cystadenocarcinoma, NOS, dosed 78 weeks, study length 107 weeks): 192 mg/kg/day | TD50 (rat, strain Fischer 344, males, in feed, site: thyroid gland, lesion: adenocarcinoma, NOS, dosed 78 weeks, study length 107 weeks): 252 mg/kg/day | TD50 (rat, strain Fischer 344, males, in feed, site: thyroid gland, lesion: c-cell adenoma + c-cell carcinoma, dosed 78 weeks, study length 107 weeks): 319 mg/kg/day

— PubChem BioAssay AID1745844 (Carcinogenic Potency Database (CPDB), 2022)
